In the CheMixHub ionic liquid set:
± gives the uncertainty stated by the source.

Test: xn = mol fraction of the nth substance listed
Details: 100 kPa

CC[n+]1ccn(CCOC)c1.O=S(=O)([N-]S(=O)(=O)C(F)(F)F)C(F)(F)F + CCO
viscosity [mPa·s]
Details | x1 = 0.1 | x1 = 0.1947 | x1 = 0.2995 | x1 = 0.4 | x1 = 0.5002 | x1 = 0.6001 | x1 = 0.6999 | x1 = 0.8 | x1 = 0.9 | x1 = 1
288.15 K | 2.988 ± 0.091 | 5.32 ± 0.12 | 8.21 ± 0.16 | 12.02 ± 0.23 | 17.17 ± 0.29 | 22.86 ± 0.36 | 29.81 ± 0.45 | 37.73 ± 0.55 | 47.39 ± 0.63 | 54.62 ± 0.35
293.15 K | 2.648 ± 0.078 | 4.62 ± 0.1 | 7.03 ± 0.13 | 10.16 ± 0.19 | 14.5 ± 0.24 | 19.09 ± 0.29 | 24.64 ± 0.36 | 30.74 ± 0.44 | 38.01 ± 0.5 | 43.63 ± 0.49
298.15 K | 2.361 ± 0.068 | 4.046 ± 0.089 | 6.09 ± 0.11 | 8.7 ± 0.16 | 12.31 ± 0.2 | 16.25 ± 0.25 | 20.6 ± 0.29 | 25.4 ± 0.35 | 31.15 ± 0.4 | 35.49 ± 0.4
303.15 K | 2.117 ± 0.06 | 3.591 ± 0.077 | 5.32 ± 0.1 | 7.53 ± 0.13 | 10.53 ± 0.17 | 13.87 ± 0.21 | 17.61 ± 0.25 | 21.35 ± 0.29 | 25.87 ± 0.33 | 29.33 ± 0.33
308.15 K | 1.907 ± 0.053 | 3.195 ± 0.067 | 4.688 ± 0.084 | 6.58 ± 0.12 | 9.1 ± 0.15 | 11.89 ± 0.18 | 15.14 ± 0.21 | 18.22 ± 0.24 | 21.81 ± 0.28 | 24.58 ± 0.28
313.15 K | 1.725 ± 0.047 | 2.861 ± 0.059 | 4.162 ± 0.074 | 5.799 ± 0.099 | 7.91 ± 0.13 | 10.27 ± 0.15 | 13.06 ± 0.18 | 15.8 ± 0.21 | 18.68 ± 0.23 | 20.86 ± 0.23
318.15 K | 1.568 ± 0.042 | 2.576 ± 0.053 | 3.743 ± 0.065 | 5.15 ± 0.086 | 6.95 ± 0.11 | 8.97 ± 0.13 | 11.36 ± 0.16 | 13.73 ± 0.18 | 16.27 ± 0.2 | 18.03 ± 0.2

C[N+](C)(C)CCC[n+]1ccccc1.N#C[N-]C#N.N#C[N-]C#N + CCO
viscosity [mPa·s]
Details | x1 = 0.0999 | x1 = 0.2001 | x1 = 0.3002 | x1 = 0.3999 | x1 = 0.5002 | x1 = 0.6001 | x1 = 0.7003 | x1 = 0.7998 | x1 = 0.8995 | x1 = 1
293.15 K | 6.55 ± 0.66 | 15.6 ± 1.6 | 38 ± 3.8 | 75.8 ± 7.7 | 137 ± 14 | 243 ± 27 | 391 ± 46 | 614 ± 78 | 1038 ± 140 | 2191 ± 340
303.15 K | 5.09 ± 0.51 | 11.8 ± 1.2 | 25.6 ± 2.6 | 49.2 ± 4.9 | 88.3 ± 9 | 138 ± 14 | 205 ± 22 | 291 ± 33 | 435 ± 52 | 830 ± 110
313.15 K | 4.23 ± 0.43 | 9.28 ± 0.93 | 20.7 ± 2.1 | 34.4 ± 3.5 | 58.2 ± 5.8 | 84.3 ± 8.5 | 119 ± 12 | 161 ± 17 | 229 ± 25 | 386 ± 46
323.15 K | 3.55 ± 0.36 | 7.47 ± 0.75 | 15.7 ± 1.6 | 25.2 ± 2.5 | 38.9 ± 3.9 | 56.2 ± 5.6 | 75.8 ± 7.6 | 99 ± 10 | 134 ± 14 | 210 ± 23
333.15 K | 3.1 ± 0.31 | 6.12 ± 0.62 | 11.9 ± 1.2 | 18 ± 1.8 | 28 ± 2.8 | 39.6 ± 4 | 51.4 ± 5.1 | 65.1 ± 6.5 | 85.3 ± 8.6 | 127 ± 13
